Experimental data: PubChem BioAssay AID1963862 (Molecular Pharmacology Branch, DTP, NCI, 2024)

Tested on: KRAS patient-derived spheroids with HUVEC/MSC, viability
Experiment: Anticancer human tumor 941728-121-R-J1-PDC patient-derived lung adenocarcinoma cell line growth inhibition [KRAS2]
Conditions: for IC50: curve of first compound; for viability, T/C: stronger effect = lower value
From the text: Multicellular complex tumor spheroid response to RAS pathway inhibitors in combination with a targeted agents in patient-derived cell lines with oncogenic KRAS variants from multiple cancer types
A high-throughput screen of multi-cell type tumor spheroids was designed to identify active combinations of targeted small molecules and KRAS pathway inhibitors. Complex spheroids include a stromal component modeled by human endothelial cells (HUVEC) and fibroblasts modeled by human mesenchymal stem cells (MSCs). The concentration ranges selected for each drug and investigational agent were based upon clinically achievable concentrations if the clinical Cmax of the agent was known.
Compounds. The drugs and investigational agents: BI-3406 (NSC825286), BAY-293 (NSC824723), batoprotafib (TNO155; NSC825523), sotorasib (AMG 510; NSC818433), MRTX1257 (NSC819558), elimusertib (BAY 1895344; NSC800525), molibresib (GSK525762; NSC774829), temuterkib (LY3214996; NSC803410), venetoclax (NSC766270), alisertib (NSC759677), olaparib (NSC753686), talazoparib (NSC767125), erdafitinib (NSC781556), ipatasertib (NSC767898), cabozantinib (NSC761068), nintedanib (NSC756659), abemaciclib (NSC768073), docetaxel (NSC628503), trametinib (NSC758246), and sapanisertib (NSC764658) were obtained from the National Cancer Institute (NCI) Developmental Therapeutics Program Chemical Repository. The FDA-approved anticancer drug set is available from the Developmental Therapeutics Program. […] The stock solutions were prepared in dimethyl sulfoxide (DMSO, Sigma-Aldrich, St. Louis, MO, cat. D2650) at 800-fold the tested concentration and stored at -70 degrees C prior to their use. All drugs and investigational agents were tested over a range starting from a high concentration at or near the clinical Cmax and decreasing in half-log increments. If the clinical Cmax for an agent had not been determined, the highest concentration tested was 10 microM.
Cell Culture. All cells were maintained in an incubator at 37 degrees C and 5% CO2 with 95% humidity. The PDC lines were cultured according to standard operating procedures established by the NCI PDMR (https://pdmr.cancer.gov/sops/default.htm). Briefly, all PDCs were thawed and cultured in Matrigel-coated flasks prepared with a working solution of 1X Ham's F-12 nutrient mix, without supplementation (Invitrogen, Waltham, MA, cat. 11765054), 100 U/mL penicillin-streptomycin (Invitrogen, cat. 15140122), and 2.5% Matrigel (Corning Inc., Corning, NY, cat. 354248) for the first three passages. All PDCs were cultured in complete DMEM/F-12 media containing advanced DMEM/F-12 (Invitrogen, cat. 12634028), 4.9% defined fetal bovine serum, heat inactivated (HyClone Laboratories Inc., Logan, UT, cat. SH30070.03HI), 389 ng/mL hydrocortisone (Sigma-Aldrich, cat. H4001), 9.7 ng/mL human EGF recombinant protein (Invitrogen, cat. PHG0313), 23.4 microg/mL adenine (Sigma-Aldrich, cat. A2786), 97.3 U/mL penicillin-streptomycin (Invitrogen, cat. 15140122), 1.9 mM L-glutamine (Invitrogen, cat. 25030081), and 9.7 microM Y-27632 dihydrochloride (Tocris Bioscience, Bristol, United Kingdom, cat. 1254). The PDCs were cultured in complete DMEM/F12 media without 9.7 microM Y-27632 dihydrochloride for at least two passages prior to the screen. The established cell line HOP-62 was cultured in RPMI 1640 medium, HEPES (Invitrogen, cat. 22400105) with 10% defined fetal bovine serum (HyClone Laboratories Inc., cat. SH30070.03) and 2 mM L-glutamine (Invitrogen, cat. 25030081). The pooled donor HUVEC were cultured in endothelial cell growth medium 2 (PromoCell, Heidelberg, Germany, cat. C-22011) and the hMSC were cultured in mesenchymal stem cell growth medium 2 (PromoCell, cat. C-28009). For all experiments, HUVEC and hMSC were used at passages </=5, while the malignant cell lines were used at passages </=15. […]

[1] = second compound 0.1 µM, first compound 0.0316 µM
[2] = second compound 0.1 µM, first compound 0.1 µM
[3] = second compound 0.1 µM, first compound 0.316 µM
[4] = second compound 0.1 µM, first compound 1 µM
[5] = second compound 0.1 µM, first compound 3.16 µM
[6] = second compound 0.1 µM, first compound 10 µM
[7] = second compound 0.316 µM, first compound 0.0316 µM
[8] = second compound 0.316 µM, first compound 0.1 µM
[9] = second compound 0.316 µM, first compound 0.316 µM
[10] = second compound 0.316 µM, first compound 1 µM
[11] = second compound 0.316 µM, first compound 3.16 µM
[12] = second compound 0.316 µM, first compound 10 µM
[13] = second compound 1 µM, first compound 0.0316 µM
[14] = second compound 1 µM, first compound 0.1 µM
[15] = second compound 1 µM, first compound 0.316 µM
[16] = second compound 1 µM, first compound 1 µM
[17] = second compound 1 µM, first compound 3.16 µM
[18] = second compound 1 µM, first compound 10 µM
[19] = second compound 3.16 µM, first compound 0.0316 µM
[20] = second compound 3.16 µM, first compound 0.1 µM
[21] = second compound 3.16 µM, first compound 0.316 µM
[22] = second compound 3.16 µM, first compound 1 µM
[23] = second compound 3.16 µM, first compound 3.16 µM
[24] = second compound 3.16 µM, first compound 10 µM
[25] = second compound 10 µM, first compound 0.0316 µM
[26] = second compound 10 µM, first compound 0.1 µM
[27] = second compound 10 µM, first compound 0.316 µM
[28] = second compound 10 µM, first compound 1 µM
[29] = second compound 10 µM, first compound 3.16 µM
[30] = second compound 10 µM, first compound 10 µM
[31] = second compound 0.1 µM, first compound 0.000316 µM
[32] = second compound 0.1 µM, first compound 0.001 µM
[33] = second compound 0.1 µM, first compound 0.00316 µM
[34] = second compound 0.1 µM, first compound 0.01 µM
[35] = second compound 0.316 µM, first compound 0.000316 µM
[36] = second compound 0.316 µM, first compound 0.001 µM
[37] = second compound 0.316 µM, first compound 0.00316 µM
[38] = second compound 0.316 µM, first compound 0.01 µM
[39] = second compound 1 µM, first compound 0.000316 µM
[40] = second compound 1 µM, first compound 0.001 µM
[41] = second compound 1 µM, first compound 0.00316 µM
[42] = second compound 1 µM, first compound 0.01 µM
[43] = second compound 3.16 µM, first compound 0.000316 µM
[44] = second compound 3.16 µM, first compound 0.001 µM
[45] = second compound 3.16 µM, first compound 0.00316 µM
[46] = second compound 3.16 µM, first compound 0.01 µM
[47] = second compound 10 µM, first compound 0.000316 µM
[48] = second compound 10 µM, first compound 0.001 µM
[49] = second compound 10 µM, first compound 0.00316 µM
[50] = second compound 10 µM, first compound 0.01 µM
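Also: spheroids exposed to agents for seven days before readout.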

Row | SMILES | IC50 (second compound 0.1 µM) [nM] | IC50 (second compound 0.316 µM) [nM] | IC50 (second compound 1 µM) [nM] | IC50 (second compound 3.16 µM) [nM] | IC50 (second compound 10 µM) [nM] | viability, T/C [1] [%] | viability, T/C [2] [%] | viability, T/C [3] [%] | viability, T/C [4] [%] | viability, T/C [5] [%] | viability, T/C [6] [%] | viability, T/C [7] [%] | viability, T/C [8] [%] | viability, T/C [9] [%] | viability, T/C [13] [%] | viability, T/C [14] [%] | viability, T/C [19] [%] | viability, T/C [20] [%] | viability, T/C [25] [%] | viability, T/C [26] [%] | also measured
1 | CC(C)NCC(C(=O)N1CCN(c2ncnc3c2C(C)CC3O)CC1)c1ccc(Cl)cc1 (stereo not given) + C=CC(=O)N1CCN(c2nc(=O)n(-c3c(C)ccnc3C(C)C)c3nc(-c4c(O)cccc4F)c(F)cc23)C(C)C1 | < 31.6 | < 31.6 | < 31.6 | < 31.6 | < 31.6 | 19.7 | 20.1 | 19.6 | 15.3 | 9.91 | 4.14 | 24.7 | 19.5 | 20 | 22.6 | 22.4 | 24.1 | 25.8 | 25.9 | 21.5 | viability, T/C [10]: 15.2%; viability, T/C [11]: 9.83%; viability, T/C [12]: 4.08%; viability, T/C [15]: 13.9%; viability, T/C [16]: 16%; viability, T/C [17]: 12%; viability, T/C [18]: 5.09%; viability, T/C [21]: 20.3%; viability, T/C [22]: 16%; viability, T/C [23]: 10.6%; viability, T/C [24]: 4.7%; viability, T/C [27]: 18.6%; viability, T/C [28]: 14.9%; viability, T/C [29]: 6.4%; viability, T/C [30]: 4.57%
2 | CC(C)n1nc(-c2ccc3oc(N)nc3c2)c2c(N)ncnc21 + CC1OCC2(CCN(c3cnc(Sc4ccnc(N)c4Cl)c(N)n3)CC2)C1N | < 0.316 | < 0.316 | < 0.316 | < 0.316 | < 0.316 | 8.84 | 6.47 |  |  |  |  | 9.93 | 5.71 |  | 8.27 | 5.69 | 3.72 | 3.13 | 3.77 | 1.91 | viability, T/C [31]: 40.7%; viability, T/C [32]: 30.6%; viability, T/C [33]: 17.2%; viability, T/C [34]: 12.1%; viability, T/C [35]: 31%; viability, T/C [36]: 24.8%; viability, T/C [37]: 16.8%; viability, T/C [38]: 11.5%; viability, T/C [39]: 25.2%; viability, T/C [40]: 20.3%; viability, T/C [41]: 12%; viability, T/C [42]: 8.84%; viability, T/C [43]: 17.6%; viability, T/C [44]: 16.4%; viability, T/C [45]: 9.88%; viability, T/C [46]: 5.58%; viability, T/C [47]: 11.4%; viability, T/C [48]: 11.2%; viability, T/C [49]: 6.08%; viability, T/C [50]: 4.41%
3 | Cn1ncnc1[C@H]1c2n[nH]c(=O)c3cc(F)cc(c23)N[C@@H]1c1ccc(F)cc1 + CC1OCC2(CCN(c3cnc(Sc4ccnc(N)c4Cl)c(N)n3)CC2)C1N | 0.334 | < 0.316 | < 0.316 | < 0.316 | < 0.316 | 44.2 | 46.5 |  |  |  |  | 28.1 | 28.1 |  | 19.2 | 26.4 | 14.4 | 19.3 | 18.3 | 14.7 | viability, T/C [31]: 49.5%; viability, T/C [32]: 50%; viability, T/C [33]: 43.2%; viability, T/C [34]: 44.7%; viability, T/C [35]: 37.7%; viability, T/C [36]: 28.5%; viability, T/C [37]: 26.1%; viability, T/C [38]: 32.7%; viability, T/C [39]: 28.7%; viability, T/C [40]: 25.9%; viability, T/C [41]: 22.2%; viability, T/C [42]: 20.6%; viability, T/C [43]: 26.6%; viability, T/C [44]: 24.8%; viability, T/C [45]: 25.3%; viability, T/C [46]: 20%; viability, T/C [47]: 23.8%; viability, T/C [48]: 21.5%; viability, T/C [49]: 19.9%; viability, T/C [50]: 18.9%
4 | O=C(c1cc(Cc2n[nH]c(=O)c3ccccc23)ccc1F)N1CCN(C(=O)C2CC2)CC1 + CC1OCC2(CCN(c3cnc(Sc4ccnc(N)c4Cl)c(N)n3)CC2)C1N | < 31.6 | < 31.6 | 87.3 | < 31.6 | < 31.6 | 50.3 | 47.7 | 48.3 | 53.1 | 62.1 | 69.7 | 41.9 | 45.4 | 52.8 | 65.1 | 45 | 31.9 | 36.3 | 26.1 | 22.3 | viability, T/C [10]: 53.7%; viability, T/C [11]: 57.8%; viability, T/C [12]: 60.7%; viability, T/C [15]: 45.7%; viability, T/C [16]: 41.6%; viability, T/C [17]: 49%; viability, T/C [18]: 58.6%; viability, T/C [21]: 35.3%; viability, T/C [22]: 38.2%; viability, T/C [23]: 41.3%; viability, T/C [24]: 45.7%; viability, T/C [27]: 29.6%; viability, T/C [28]: 28.5%; viability, T/C [29]: 35.1%; viability, T/C [30]: 29.3%
